For the assay, the target named is IRAK4 (Homo sapiens (Human), UniProt Q9NWZ3). As to the kind of experiment: IRAK-4 AlphaScreen biochemical kinase assay. The note with it: 1 nM IRAK4, 1 mM ATP, 3.5 h at RT. As for the experimental part:
The biochemical assay is in a AlphaScreen format. The kinase reaction is based on the IRAK-4 phosphorylation of a biotin labeled peptide. The phosphopeptide is incubated with anti-phosphothreonine antibody as well as streptavidin- and protein A-coated beads. Binding of the protein-A coated beads to the antibody and the streptavidin beads to the peptide, leads to an energy transfer from one bead to the other, ultimately producing a luminescent/fluorescent signal.
On the technique in general: Alpha assays give light when donor and acceptor beads are brought close together.

Here are results for 44 compounds from US10246456B2, “IRAK4 inhibiting agents” (BIOGEN MA INC., priority 2014, dated 2019).

Sequence of IRAK4 (Q9NWZ3 whole entry, species assumed): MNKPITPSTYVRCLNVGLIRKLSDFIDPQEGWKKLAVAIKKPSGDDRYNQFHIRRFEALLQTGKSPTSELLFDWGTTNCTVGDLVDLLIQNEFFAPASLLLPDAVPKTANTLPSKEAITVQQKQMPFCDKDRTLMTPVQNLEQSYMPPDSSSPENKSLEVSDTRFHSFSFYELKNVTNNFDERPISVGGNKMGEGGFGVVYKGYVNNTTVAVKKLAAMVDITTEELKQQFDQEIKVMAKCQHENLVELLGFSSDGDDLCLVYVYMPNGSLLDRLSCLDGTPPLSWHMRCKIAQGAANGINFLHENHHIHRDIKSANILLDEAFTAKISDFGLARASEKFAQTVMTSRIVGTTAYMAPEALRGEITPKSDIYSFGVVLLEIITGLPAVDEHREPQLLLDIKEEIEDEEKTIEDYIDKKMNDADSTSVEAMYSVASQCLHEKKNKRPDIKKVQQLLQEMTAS

“1-(6-methylpyridin-2-yl)-1H-pyrazolo[4,3-c]pyridin-7-amine [Example 200]”: the IC50 is < 100 nM. With `CC(N)c1cccc(-c2ccc3cnn(-c4cccc(C(F)(F)F)n4)c3c2)n1` (racemic) [Example 209, 1-(6-(1-(6-(trifluoromethyl)pyridin-2-yl)-1H-indazol-6-yl)pyridin-2-yl)ethanamine] the figure was < 100 nM. In the case of `CNC(C)c1cccc(-c2ccc3cnn(-c4cccc(C(F)(F)F)n4)c3c2)n1` (single isomer, unassigned) [Example 117, N-methyl-1-(6-(1-(6-(trifluoromethyl)pyridin-2-yl)-1H-indazol-6-yl)pyridin-2-yl)ethanamine] it was < 100 nM. With `CCC[C@H](N)c1cccc(-c2ccc3cnn(-c4cccc(C(C)O)n4)c3c2)n1` (single isomer, unassigned) [Example 417] the figure was < 100 nM; with `CC(N)c1cccc(-c2ccc3cnn(-c4cccc(C(F)(F)F)n4)c3c2)n1` (single isomer, unassigned; isomer a) [Example 83, 1-(6-(1-(6-(trifluoromethyl)pyridin-2-yl)-1H-indazol-6-yl)pyridin-2-yl)ethanamine-isomer A], < 100 nM. Take `CC(N)c1cccc(-c2ccc3cnn(-c4cccc(C(F)(F)F)n4)c3c2)n1` (single isomer, unassigned; isomer b) [Example 84, 1-(6-(1-(6-(trifluoromethyl)pyridin-2-yl)-1H-indazol-6-yl)pyridin-2-yl)ethanamine-isomer B]: the IC50 was < 100 nM. With `Cc1cccc(-n2ncc3ccc(-c4cccc(N)n4)cc32)n1` [Example 1, 6-(1-(6-methylpyridin-2-yl)-1H-indazol-6-yl)pyridin-2-amine] the figure was 100 to 1000 nM. In turn, `Cc1cccc(-n2ncc3ccc(-c4nccc(N)n4)cc32)n1` [Example 2, 2-(1-(6-methylpyridin-2-yl)-1H-indazol-6-yl)pyrimidin-4-amine] returned an IC50 of 1000 to 10000 nM.

Turning to `Cc1cccc(-n2ncc3ccc(-c4cc(N)ccn4)cc32)n1` [Example 3, 2-(1-(6-methylpyridin-2-yl)-1H-indazol-6-yl)pyridin-4-amine], the IC50 lay in the range of 1000 to 10000 nM. In turn, `Cc1cccc(-n2ncc3ccc(-c4cccc(CN)n4)cc32)n1` [Example 4, (6-(1-(6-methylpyridin-2-yl)-1H-indazol-6-yl)pyridin-2-yl)methanamine] showed an IC50 of 100 to 1000 nM. For `Cc1cccc(-n2ncc3ccc(-c4cc(CN)ccn4)cc32)n1` [Example 5, (2-(1-(6-methylpyridin-2-yl)-1H-indazol-6-yl)pyridin-4-yl)methanamine], the IC50 lay in the range of 1000 to 10000 nM. With `Cc1cccc(-n2ncc3ccc(-c4ccnc(N)c4)cc32)n1` [Example 6, 4-(1-(6-methylpyridin-2-yl)-1H-indazol-6-yl)pyridin-2-amine] the figure was 100 to 1000 nM; with `Cc1cccc(-n2ncc3ccc(-c4cccc(N)c4)cc32)n1` [Example 8, 3-(1-(6-methylpyridin-2-yl)-1H-indazol-6-yl)aniline], 100 to 1000 nM; with `Cc1cccc(-n2ncc3ccc(-c4nccc(CN)n4)cc32)n1` [Example 9, (2-(1-(6-methylpyridin-2-yl)-1H-indazol-6-yl)pyrimidin-4-yl)methanamine], 100 to 1000 nM. In the case of `Cc1cccc(-n2ncc3ccc(-c4cncc(N)c4C)cc32)n1` [Example 10, 4-methyl-5-(1-(6-methylpyridin-2-yl)-1H-indazol-6-yl)pyridin-3-amine] it was 1000 to 10000 nM; in that of `Cc1cccc(-n2ncc3ccc(-c4cc(N)cnc4O)cc32)n1` [Example 11, 5-amino-3-(1-(6-methylpyridin-2-yl)-1H-indazol-6-yl)pyridin-2-ol], 1000 to 10000 nM. `Cc1cccc(-n2ncc3ccc(-c4cncc(N)c4O)cc32)n1` [Example 12, 3-amino-5-(1-(6-methylpyridin-2-yl)-1H-indazol-6-yl)pyridin-4-ol] showed an IC50 of 1000 to 10000 nM.

In turn, `CNc1cncc(-c2ccc3cnn(-c4cccc(C)n4)c3c2)c1` [Example 13, N-methyl-5-(1-(6-methylpyridin-2-yl)-1H-indazol-6-yl)pyridin-3-amine] displayed an IC50 of 100 to 1000 nM. Consider `Cc1cccc(-n2ncc3ccc(-c4cccc(CN(C)C)n4)cc32)n1` [Example 14, N,N-dimethyl-1-(6-(1-(6-methylpyridin-2-yl)-1H-indazol-6-yl)pyridin-2-yl)methanamine], for which the IC50 lay within 100 to 1000 nM. Turning to `Cc1cccc(-n2ncc3ccc(-c4cccc5c4CCNC5)cc32)n1` [Example 15, 5-(1-(6-methylpyridin-2-yl)-1H-indazol-6-yl)-1,2,3,4-tetrahydroisoquinoline], the IC50 is 1000 to 10000 nM. With `Cc1cccc(-n2ncc3ccc(-c4cccc5c4CCN(C)C5)cc32)n1` [Example 16, 2-methyl-5-(1-(6-methylpyridin-2-yl)-1H-indazol-6-yl)-1,2,3,4-tetrahydroisoquinoline] the figure was 1000 to 10000 nM. In the case of `Cc1cccc(-n2ncc3ccc(-c4cccc5c4CN(C)C5)cc32)n1` [Example 17, 6-(2-methylisoindolin-4-yl)-1-(6-methylpyridin-2-yl)-1H-indazole] it was 1000 to 10000 nM; in that of `CNCc1cccc(-c2ccc3cnn(-c4cccc(C)n4)c3c2)c1` [Example 18, N-methyl-1-(3-(1-(6-methylpyridin-2-yl)-1H-indazol-6-yl)phenyl)methanamine], < 100 nM. In the case of `N#Cc1cccc(-n2ncc3ccc(-c4cccc(N)c4)cc32)c1` [Example 20, 3-(6-(3-aminophenyl)-1H-indazol-1-yl)benzonitrile] it was 100 to 1000 nM.

The compound `Nc1cccc(-c2ccc3cnn(-c4ccccn4)c3c2)c1` [Example 21, 3-(1-(pyridin-2-yl)-1H-indazol-6-yl)aniline] yielded an IC50 of 100 to 1000 nM.

With `N#Cc1cccc(-n2ncc3ccc(-c4cccc(N)c4)cc32)n1` [Example 22, 6-(6-(3-aminophenyl)-1H-indazol-1-yl)picolinonitrile], the IC50 was < 100 nM. With `Cc1cc(C)nc(-n2ncc3ccc(-c4cccc(N)c4)cc32)c1` [Example 23, 3-(1-(4,6-dimethylpyridin-2-yl)-1H-indazol-6-yl)aniline], the 50% inhibitory concentration (IC50) fell in the range of 1000 to 10000 nM.

For the compound `Cc1ccc(-n2ncc3ccc(-c4cccc(N)c4)cc32)nc1C` [Example 24, 3-(1-(5,6-dimethylpyridin-2-yl)-1H-indazol-6-yl)aniline], the IC50 lay within 1000 to 10000 nM. In the case of `Nc1cccc(-c2ccc3cnn(-c4cccc(C(F)(F)F)n4)c3c2)c1` [Example 25, 3-(1-(6-(trifluoromethyl)pyridin-2-yl)-1H-indazol-6-yl)aniline] it was < 100 nM; in that of `Nc1cncc(-c2ccc3cnn(-c4cccc(C5CC5)n4)c3c2)c1` [Example 27, 5-(1-(6-cyclopropylpyridin-2-yl)-1H-indazol-6-yl)pyridin-3-amine], < 100 nM. In the case of `Nc1cncc(-c2ccc3cnn(-c4cccc(C5CCC5)n4)c3c2)c1` [Example 28, 5-(1-(6-cyclobutylpyridin-2-yl)-1H-indazol-6-yl)pyridin-3-amine] it was 1000 to 10000 nM. For the compound `N#Cc1cccc(-n2ncc3ccc(-c4cncc(N)c4)cc32)n1` [Example 29, 6-(6-(5-aminopyridin-3-yl)-1H-indazol-1-yl)picolinonitrile], the IC50 was < 100 nM. With `Nc1cncc(-c2ccc3cnn(-c4cccc(C(=O)O)n4)c3c2)c1` [Example 30, 6-(6-(5-aminopyridin-3-yl)-1H-indazol-1-yl)picolinic acid] the figure was 100 to 1000 nM; with `NC(=O)c1cccc(-n2ncc3ccc(-c4cncc(N)c4)cc32)n1` [Example 31, 6-(6-(5-aminopyridin-3-yl)-1H-indazol-1-yl)picolinamide], < 100 nM; with `CNC(=O)c1cccc(-n2ncc3ccc(-c4cncc(N)c4)cc32)n1` [Example 32, 6-(6-(5-aminopyridin-3-yl)-1H-indazol-1-yl)-N-methylpicolinamide], 100 to 1000 nM. With `N#Cc1cccc(-n2ncc3ccc(-c4cncc(N)c4)cc32)c1` [Example 33, 3-(6-(5-aminopyridin-3-yl)-1H-indazol-1-yl)benzonitrile] the figure was 100 to 1000 nM; with `Cc1cc(C#N)cc(-n2ncc3ccc(-c4cncc(N)c4)cc32)n1` [Example 34, 2-(6-(5-aminopyridin-3-yl)-1H-indazol-1-yl)-6-methylisonicotinonitrile], 100 to 1000 nM. In turn, `N#Cc1ccnc(-n2ncc3ccc(-c4cncc(N)c4)cc32)c1` [Example 35, 2-(6-(5-aminopyridin-3-yl)-1H-indazol-1-yl)isonicotinonitrile] yielded an IC50 of 100 to 1000 nM. With `Cc1ccnc(-n2ncc3ccc(-c4cncc(N)c4)cc32)n1` [Example 36, 5-(1-(4-methylpyrimidin-2-yl)-1H-indazol-6-yl)pyridin-3-amine] the figure was < 100 nM.

On to `N#Cc1ccnc(-n2ncc3ccc(-c4cncc(N)c4)cc32)n1` [Example 37, 2-(6-(5-aminopyridin-3-yl)-1H-indazol-1-yl)pyrimidine-4-carbonitrile], for which the IC50 was < 100 nM.

`Cc1ccc(Cl)c(-n2ncc3ccc(-c4cncc(N)c4)cc32)n1` [Example 38, 5-(1-(3-chloro-6-methylpyridin-2-yl)-1H-indazol-6-yl)pyridin-3-amine] registered an IC50 of 1000 to 10000 nM. In the case of `Cc1ccnc(-n2ncc3ccc(-c4cncc(N)c4)cc32)c1` [Example 39, 5-(1-(4-methylpyridin-2-yl)-1H-indazol-6-yl)pyridin-3-amine] it was 100 to 1000 nM; in that of `Nc1cncc(-c2ccc3cnn(-c4cccc(C(F)(F)F)n4)c3c2)c1` [Example 40, 5-(1-(6-(trifluoromethyl)pyridin-2-yl)-1H-indazol-6-yl)pyridin-3-amine], < 100 nM. With `Cc1cccc(-c2ncc3ccc(-c4cncc(N)c4)cn23)n1` [Example 41, 5-(3-(6-methylpyridin-2-yl)imidazo[1,5-a]pyridin-6-yl)pyridin-3-amine] the figure was < 100 nM.

The term IC50 denotes the point on the concentration scale where inhibition reaches its midpoint. High values mean weaker potency in that assay, low ones greater potency in that assay.
